# Tests used:
# [1] = molecular target: ATP-binding cassette sub-family C member 2 (Homo sapiens, UniProt Q92887); experiment: Inhibition of human MRP2-mediated estradiol-17-beta-glucuronide transport in Sf9 cells inverted membrane vesicles
# MRP2 (ABCC2) = MRP2 (ABCC2) (Homo sapiens, UniProt Q92887); experiment: in vitro;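 also: Inside-out membrane vesicles from Sf9 insect cells expressing human MRP2, measuring uptake of the estradiol glucuronide substrate, expressed as percent of untreated control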
# Description: Effect on human MRP2-mediated estradiol-17-beta-glucuronide transport in Sf9 cells inverted membrane vesicles relative to control
# [2] = probe estradiol-17-beta-glucuronide
# MRP2 (ABCC2), sequence (Q92887 whole entry): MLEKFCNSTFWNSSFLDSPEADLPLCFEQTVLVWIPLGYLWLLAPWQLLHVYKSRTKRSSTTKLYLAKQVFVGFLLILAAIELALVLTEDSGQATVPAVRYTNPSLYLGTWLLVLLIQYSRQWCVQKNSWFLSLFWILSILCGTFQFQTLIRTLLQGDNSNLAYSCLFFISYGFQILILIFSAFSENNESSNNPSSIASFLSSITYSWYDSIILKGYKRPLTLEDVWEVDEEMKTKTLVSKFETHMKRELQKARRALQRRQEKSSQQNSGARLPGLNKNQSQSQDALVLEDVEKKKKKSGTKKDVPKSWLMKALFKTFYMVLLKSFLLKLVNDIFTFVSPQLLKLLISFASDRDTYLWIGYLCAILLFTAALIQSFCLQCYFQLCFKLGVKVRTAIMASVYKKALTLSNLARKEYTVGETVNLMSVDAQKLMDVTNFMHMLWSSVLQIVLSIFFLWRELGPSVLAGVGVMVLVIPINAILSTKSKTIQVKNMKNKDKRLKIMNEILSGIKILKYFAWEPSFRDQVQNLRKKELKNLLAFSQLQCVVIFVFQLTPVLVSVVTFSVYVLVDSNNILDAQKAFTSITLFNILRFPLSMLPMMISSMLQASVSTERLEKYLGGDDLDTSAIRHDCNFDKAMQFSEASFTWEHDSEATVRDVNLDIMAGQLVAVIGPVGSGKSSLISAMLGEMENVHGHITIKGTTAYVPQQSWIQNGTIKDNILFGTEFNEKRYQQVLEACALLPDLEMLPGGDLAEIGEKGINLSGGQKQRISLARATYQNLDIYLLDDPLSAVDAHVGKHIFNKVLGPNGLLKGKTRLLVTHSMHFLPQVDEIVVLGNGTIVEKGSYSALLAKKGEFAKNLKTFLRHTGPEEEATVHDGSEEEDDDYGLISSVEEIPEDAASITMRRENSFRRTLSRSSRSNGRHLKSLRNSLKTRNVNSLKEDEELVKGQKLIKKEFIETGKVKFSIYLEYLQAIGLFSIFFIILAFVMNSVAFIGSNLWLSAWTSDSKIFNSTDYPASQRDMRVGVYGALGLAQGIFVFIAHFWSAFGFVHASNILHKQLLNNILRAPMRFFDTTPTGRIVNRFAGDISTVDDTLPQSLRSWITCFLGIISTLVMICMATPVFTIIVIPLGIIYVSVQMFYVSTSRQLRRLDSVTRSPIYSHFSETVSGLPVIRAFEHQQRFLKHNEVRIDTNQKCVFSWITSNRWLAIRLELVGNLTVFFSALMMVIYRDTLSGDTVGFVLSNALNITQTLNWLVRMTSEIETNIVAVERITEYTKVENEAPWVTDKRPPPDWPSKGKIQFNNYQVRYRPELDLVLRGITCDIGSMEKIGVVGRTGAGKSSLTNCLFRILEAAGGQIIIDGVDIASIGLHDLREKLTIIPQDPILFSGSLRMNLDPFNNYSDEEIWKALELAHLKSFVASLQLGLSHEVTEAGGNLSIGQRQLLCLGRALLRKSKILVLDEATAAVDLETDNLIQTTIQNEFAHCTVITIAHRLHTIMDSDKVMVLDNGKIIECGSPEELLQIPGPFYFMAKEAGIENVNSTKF
# ATP-binding cassette sub-family C member 2, sequence (Q92887 whole entry): as above
structure (smiles),measurement,setting,value
CN(C)C(=O)CCSC(SCCC(=O)O)c1cccc(/C=C/c2ccc3ccc(Cl)cc3n2)c1 (configuration not stated) [MK-571],IC50,[1],10 µM
same,activity,MRP2 (ABCC2); sf9,9%
O=C1C(CC[S+]([O-])c2ccccc2)C(=O)N(c2ccccc2)N1c1ccccc1 (configuration not stated) [SULFINPYRAZONE],activity,MRP2 (ABCC2); [2],150%
O=C1OC(c2ccc(O)c(S(=O)(=O)O)c2)(c2ccc(O)c(S(=O)(=O)O)c2)c2c(Br)c(Br)c(Br)c(Br)c21 [SULFOBROMOPHTHALEIN SODIUM],activity,MRP2 (ABCC2); [2],5%
CC/C(=C(\c1ccccc1)c1ccc(OCCN(C)C)cc1)c1ccccc1 [TAMOXIFEN],activity,MRP2 (ABCC2); [2],8%
C[C@H](CCC(=O)NCCS(=O)(=O)O)[C@H]1CC[C@H]2[C@@H]3CC[C@@H]4C[C@H](O)CC[C@]4(C)[C@H]3CC[C@]12C [TAUROLITHOCHOLIC ACID],activity,MRP2 (ABCC2); [2],27%
COc1cc2nc(N3CCN(C(=O)C4CCCO4)CC3)nc(N)c2cc1OC (configuration not stated) [TERAZOSIN],activity,MRP2 (ABCC2); sf9,94%
CC(C)(C)c1ccc(C(O)CCCN2CCC(C(O)(c3ccccc3)c3ccccc3)CC2)cc1 (configuration not stated) [TERFENADINE],activity,MRP2 (ABCC2); sf9,3%
C[C@]12CC[C@H]3[C@@H](CCC4=CC(=O)CC[C@@]43C)[C@@H]1CC[C@@H]2O [TESTOSTERONE],activity,MRP2 (ABCC2); [2],140%
CN(C)[C@@H]1C(O)=C(C(N)=O)C(=O)[C@@]2(O)C(O)=C3C(=O)c4c(O)cccc4[C@@](C)(O)[C@H]3C[C@@H]12 [TETRACYCLINE],activity,MRP2 (ABCC2); sf9,110%
CSc1ccc2c(c1)N(CCC1CCCCN1C)c1ccccc1S2 (configuration not stated) [THIORIDAZINE],activity,MRP2 (ABCC2); [2],-1%
CC(C)(C)NC[C@H](O)COc1nsnc1N1CCOCC1 [TIMOLOL],activity,MRP2 (ABCC2); sf9,91%
CCS(=O)(=O)CCn1c([N+](=O)[O-])cnc1C [TINIDAZOLE],activity,MRP2 (ABCC2); [2],55%
COc1cccc([C@@]2(O)CCCC[C@@H]2CN(C)C)c1 [TRAMADOL],activity,MRP2 (ABCC2); [2],89%
COc1cc(Cc2cnc(N)nc2N)cc(OC)c1OC [TRIMETHOPRIM],activity,MRP2 (ABCC2); sf9,107%
N[C@@H](Cc1c[nH]c2ccccc12)C(=O)O [TRYPTOPHAN],activity,MRP2 (ABCC2); [2],66%
CC(C)[C@H](N)C(=O)OCCOCn1cnc2c(=O)[nH]c(N)nc21 [VALACYCLOVIR],activity,MRP2 (ABCC2); [2],94%
CCCC(CCC)C(=O)O [VALPROIC ACID],activity,MRP2 (ABCC2); [2],94%
CC[C@]1(O)C[C@@H]2CN(CCc3c([nH]c4ccccc34)[C@@](C(=O)OC)(c3cc4c(cc3OC)N(C)[C@H]3[C@@](O)(C(=O)OC)[C@H](OC(C)=O)[C@]5(CC)C=CCN6CC[C@]43[C@@H]65)C2)C1 [VINBLASTINE],activity,MRP2 (ABCC2); [2],78%
CC[C@]1(O)C[C@H]2CN(CCc3c([nH]c4ccccc34)[C@@](C(=O)OC)(c3cc4c(cc3OC)N(C=O)[C@H]3[C@@](O)(C(=O)OC)[C@H](OC(C)=O)[C@]5(CC)C=CCN6CC[C@]43[C@@H]65)C2)C1 [VINCRISTINE],activity,MRP2 (ABCC2); [2],82%
CC(=O)CC(c1ccccc1)c1c(O)c2ccccc2oc1=O (configuration not stated) [WARFARIN],activity,MRP2 (ABCC2); [2],136%
Cc1cn([C@H]2C[C@H](N=[N+]=[N-])[C@@H](CO)O2)c(=O)[nH]c1=O [ZIDOVUDINE],activity,MRP2 (ABCC2); [2],103%
